Assays:
[1] = tested on: olfactory sensitivity to 3M3SH; assay: Sensory test: odor sensory intensity to 3M3SH with 3M3SH applied to armpit portions of clothes; assay type: in vivo, human; conditions: fifteen minutes after application of 3M3SH onto the armpit portions, two subjects, FIG. 3
Method: 3M3SH was used as an underarm odor-causing substance. A sensory evaluation sample was prepared by adding one cotton ball (Hakujuji Co., Ltd., No. 10) into a 13.5-mL vial bottle (Maruemu No. 5), and then adding 10 µL of a 3M3SH solution with each diluted concentration thereto. For the 3M3SH solution, mineral oil (Sigma-Aldrich) was used as a solvent, and the concentrations of the solution were set to be 0 µM, 1 µM, 3 µM, 10 µM, 30 µM, 100 µM, and 300 µM.
The sensory test was carried out with two subjects. The subjects wore a commercially available white cloth (material: 65% polyester and 35% cotton). The subjects first smelled the above-described samples in the order from a low concentration sample to a high concentration sample, and odor sensory intensity which the subjects felt was then evaluated. The evaluation was carried out in 9 stages from “0: Not felt” to “4: Unbearably strongly felt,” at intervals of 0.5. Thereafter, the 3M3SH ethanol solution (3 µg/mL) was added in an amount of 10 µL each onto both of the armpit portions of each subject’ clothes (white clothes). Fifteen minutes after addition of this solution, the above-described sensory evaluation was carried out again. […]

OR4S2 = target: T1, OR4S2 (Homo sapiens, UniProt Q8NH73); assay: Luciferase reporter gene assay, response of OR4S2 to odor substances; assay type: cell-based; conditions: OR4S2-expressing HEK293 cells, luciferase fold increase, FIG. 4, 5, 9
T1 construct: Flag-Rho tag (N); expressed in transfected cells; host or cells: HEK293
T1 sequence (Q8NH73 1-311): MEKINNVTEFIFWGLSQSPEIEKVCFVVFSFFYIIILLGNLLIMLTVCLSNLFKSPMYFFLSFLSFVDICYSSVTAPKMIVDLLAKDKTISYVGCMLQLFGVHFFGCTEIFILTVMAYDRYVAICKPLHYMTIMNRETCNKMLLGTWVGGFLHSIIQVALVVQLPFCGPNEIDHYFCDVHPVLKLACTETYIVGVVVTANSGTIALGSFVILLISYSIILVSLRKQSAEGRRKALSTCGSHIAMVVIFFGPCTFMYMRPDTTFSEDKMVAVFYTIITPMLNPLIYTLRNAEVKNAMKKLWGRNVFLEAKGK
Excerpt: Genes encoding the human olfactory receptors OR10G4, OR4S2, OR5P3, OR2W1, and OR1A1 (which are as set forth in SEQ ID NOs: 1, 2, 3, 4, and 5, respectively) were cloned. Each gene was cloned by PCR using human genomic DNA female (G1521: Promega) as a template, based on the sequence information registered in GenBank. Each gene amplified by PCR was incorporated into a pENTR vector (Invitrogen) in accordance with the manual, and by utilizing the NotI/AscI site present on the pENTR vector, it was recombined to the NotI/AscI site produced downstream of a Flag-Rho tag sequence on a pME18S vector.
HEK293 cells in which any one of the above-described human olfactory receptors was allowed to express, were produced. A reaction solution having the composition shown in Table 2 was prepared, and was then left to stand in a clean bench for 15 minutes. The resultant was added into each well of a 96-well plate (BD). […]
(§1) An olfactory receptor expressed in HEK293 cells conjugated with Gαs existing in the cells to activate adenylate cyclase, so as to increase the amount of cAMP in the cells. For the receptor response measurement in the present study, a luciferase reporter gene assay was applied, and an increase in the intracellular amount of cAMP was monitored as a luminescence value derived from a firefly luciferase gene (fluc2P-CRE-hygro). […]
The medium was removed from the culture produced in the above 3), and an odor substance solution was then added thereto. […] The activity of luciferase was measured using Dual-Glo™ luciferase assay system (Promega) in accordance with the operating manual of the product. The value fLuc/hRluc was calculated by dividing the value of luminescence derived from firefly luciferase by the value of luminescence derived from Renilla luciferase. A fold increase was calculated by dividing the value fLuc/hRluc induced by cells stimulated with an odor substance, by the value fLuc/hRluc induced by cells not stimulated with an odor substance, and the obtained value was used as an indicator of response intensity. […]

olfactory sensitivity = assay: Sensory test: detection threshold concentration of odor substances before and after oral care; assay type: in vivo, human; conditions: for olfactory sensitivity (detection threshold concentration): 1 hour after oral care vs before oral care
Method: Olfactory sensitivity before and after oral care was evaluated according to a sensory test. The experimental scheme is shown in FIG. 6A, and is also described in detail below. The sensory test was carried out with 14 subjects. On the test day, the subjects were prohibited to eat and drink anything after getting up, and were also prohibited to do oral care including brushing of teeth. The test was started between 8:00 am to 9:30 am. First, exhaled breath was collected from the subjects. Subsequently, the detection threshold concentration of each odor substance was measured according to the sensory test. Thereafter, the subjects ate designated breakfast, and then performed oral care (the brushing of teeth using commercially available toothbrush and dentifrice for 5 minutes, and then, the washing of the mouth using commercially available mouth wash for 30 seconds). At individual time points of 10 minutes and 1 hour after the oral care, exhaled breath was collected from the subjects and the detection threshold concentration of each odor substance was measured.
1 mL of an odor substance solution placed in a vial bottle (Maruemu, No. 2) was used as an odor sample. As such odor substance solutions, a 20-step 2-fold dilution series was prepared regarding each of muscone, indole, and furfuryl mercaptan (highest concentrations: 1000 ppm, 1 mM, and 10 ppb, respectively). Mineral oil (Sigma-Aldrich) was used as a solvent in all cases. As a blank, a vial containing 1 mL of mineral oil was used.
A single test was carried out on two types of odor substance among muscone, indole, and furfuryl mercaptan. […] The test participants smelled the odors contained in the vials and tried to choose the vial containing an odor solution. The test was started with an odor sample having the third low concentration. When the subject’s selection was incorrect or the subject could not choose the vial even once, the same trial was carried out using an odor sample having one step higher concentration. When the subject’ selection was correct two times in a row, the same trial was carried out using an odor sample having one step lower concentration. When the subject’ selection was correct two times in a row using an odor sample with a new concentration, the subject was tested using an odor sample having further one step lower concentration. When the subject could not choose the correct vial even once, the subject was tested using an odor sample having one step higher concentration. Switching from a high concentration to a low concentration, and from a low concentration to a high concentration, was recorded 7 times in total, and the mean value of the concentrations measured 4 times in the second half was defined as a detection threshold concentration. The detection threshold concentrations of each odor substance before and after oral care were compared with each other according to the Wilcoxon signed-rank test, and the p value was calculated. The statistical analysis was carried out using R Software (Ver.3.6.0).

OR5AN1 = target: T2, OR5AN1 (Homo sapiens, UniProt Q8NGI8); conditions: Patent Literature 1; cited from earlier work
T2 sequence (Q8NGI8 1-311): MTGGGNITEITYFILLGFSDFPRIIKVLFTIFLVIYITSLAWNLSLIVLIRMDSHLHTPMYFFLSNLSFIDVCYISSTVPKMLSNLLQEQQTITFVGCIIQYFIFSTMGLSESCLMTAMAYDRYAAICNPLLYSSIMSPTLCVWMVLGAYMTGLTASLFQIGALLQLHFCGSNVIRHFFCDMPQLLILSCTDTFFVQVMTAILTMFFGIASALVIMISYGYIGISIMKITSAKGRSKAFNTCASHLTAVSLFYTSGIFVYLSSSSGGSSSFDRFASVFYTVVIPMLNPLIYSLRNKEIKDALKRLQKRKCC

OR10G4 = target: T3, OR10G4 (Homo sapiens, UniProt Q8NGN3); assay: Luciferase reporter gene assay, response of OR10G4 to odor substances; assay type: cell-based; conditions: OR10G4-expressing HEK293 cells, luciferase fold increase, FIG. 1
T3 construct: Flag-Rho tag (N); expressed in transfected cells; host or cells: HEK293
T3 sequence (Q8NGN3 1-311): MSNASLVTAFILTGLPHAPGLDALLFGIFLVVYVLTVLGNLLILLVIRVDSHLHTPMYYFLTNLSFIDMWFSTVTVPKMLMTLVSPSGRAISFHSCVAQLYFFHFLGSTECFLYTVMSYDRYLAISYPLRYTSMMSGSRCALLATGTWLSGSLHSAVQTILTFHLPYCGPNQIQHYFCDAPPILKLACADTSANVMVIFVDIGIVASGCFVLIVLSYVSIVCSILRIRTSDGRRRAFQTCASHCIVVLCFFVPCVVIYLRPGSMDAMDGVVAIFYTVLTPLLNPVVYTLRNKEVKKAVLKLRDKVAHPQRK
Excerpt: Genes encoding the human olfactory receptors OR10G4, OR4S2, OR5P3, OR2W1, and OR1A1 (which are as set forth in SEQ ID NOs: 1, 2, 3, 4, and 5, respectively) were cloned. Each gene was cloned by PCR using human genomic DNA female (G1521: Promega) as a template, based on the sequence information registered in GenBank. Each gene amplified by PCR was incorporated into a pENTR vector (Invitrogen) in accordance with the manual, and by utilizing the NotI/AscI site present on the pENTR vector, it was recombined to the NotI/AscI site produced downstream of a Flag-Rho tag sequence on a pME18S vector. […]
as §1
The medium was removed from the culture produced in the above 3), and an odor substance solution was then added thereto. […] The activity of luciferase was measured using Dual-Glo™ luciferase assay system (Promega) in accordance with the operating manual of the product. […]

Row | SMILES | response of OR4S2 to odor substances (OR4S2) | olfactory sensitivity (detection threshold concentration) (olfactory sensitivity; FIG. 7A) | response of OR10G4 to odor substances (OR10G4) | other results
1 | CCCC(C)(S)CCO (stereo not drawn) [3M3SH, 3-Methyl-3-sulfanylhexan-1-ol] | – | – | – | odor intensity of 3M3SH felt from the sample [1]: reduced
2 | C[C@@H]1CCCCCCCCCCCCC(=O)C1 [muscone, Muscone] | is not activated by | no statistically significant difference | – | recognition by OR5AN1 (OR5AN1): recognized, mainly mediated by OR5AN1
3 | SCc1ccco1 [furfuryl mercaptan, Furfuryl mercaptan] | is activated by | statistically significantly improved | – | –
4 | c1ccc2[nH]ccc2c1 [indole, Indole] | activate OR4S2 | statistically significantly improved | – | detection threshold concentration relative to before oral care (olfactory sensitivity; 10 minutes after the oral care, FIG. 7B): 1/16; detection threshold concentration relative to before oral care (olfactory sensitivity; 1 hour after the oral care, on average, FIG. 7A): ⅛
5 | CCOc1cc(C=O)ccc1O [ethyl vanillin, Ethyl vanillin] | – | – | activate OR10G4 | –
6 | COc1ccccc1O [guaiacol, Guaiacol] | – | – | activate OR10G4 | –
